US20020115727A1, “Synthesis, methods of using, and compositions of hydroxylated cyclobutylalkylamines” (priority 2000, published 2002)
Read-outs that look alike come from different tables or passages of the source.

Experiments:
[1] = biological target: T1, functional uptake of serotonin (5-HT) into synaptosomes prepared from rat whole brain (Rattus norvegicus, UniProt P31652); test: Functional uptake of serotonin (5-HT) into synaptosomes; assay type: biochemical; details: for IC50: rat whole brain synaptosomes, 10 concentrations in duplicate; for inhibition at 10 µM: read-out: inhibition of 5-HT uptake (no IC50 determined)
T1 construct: into synaptosomes prepared from rat whole brain, hypothalamus, or corpora striata, respectively; from tissue; host or cells: rat whole brain synaptosomes
T1 sequence (P31652 whole entry): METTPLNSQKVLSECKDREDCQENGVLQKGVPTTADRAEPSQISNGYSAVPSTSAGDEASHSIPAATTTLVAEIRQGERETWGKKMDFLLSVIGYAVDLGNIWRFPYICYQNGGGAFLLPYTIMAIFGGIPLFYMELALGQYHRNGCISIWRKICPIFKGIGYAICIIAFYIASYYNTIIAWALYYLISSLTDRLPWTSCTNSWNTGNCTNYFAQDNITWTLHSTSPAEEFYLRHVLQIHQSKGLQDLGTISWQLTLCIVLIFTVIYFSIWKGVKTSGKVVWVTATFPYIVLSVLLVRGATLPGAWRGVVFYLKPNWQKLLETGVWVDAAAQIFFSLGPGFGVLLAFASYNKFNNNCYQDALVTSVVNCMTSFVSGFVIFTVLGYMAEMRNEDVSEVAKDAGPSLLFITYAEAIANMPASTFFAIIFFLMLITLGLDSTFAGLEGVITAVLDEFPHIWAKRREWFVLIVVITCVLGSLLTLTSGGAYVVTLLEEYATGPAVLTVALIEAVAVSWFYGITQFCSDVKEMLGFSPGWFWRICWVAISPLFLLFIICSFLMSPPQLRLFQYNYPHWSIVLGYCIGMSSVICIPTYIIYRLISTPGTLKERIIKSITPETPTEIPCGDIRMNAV
Procedure: (§1) The 1-OH metabolites of N-didesmethylsibutramine (1-OH-DDMS) were tested to determine thir ability to functional uptake of serotonin (5-HT), norepinephrine (NE), or dopamine (DA), into synaptosomes prepared from rat whole brain, hypothalamus, or corpora striata, respectively. In addition, binding was determined at the nonselective muscarinic receptor and the β3-receptor from rat cerebral cortex and rat adipose tissue, respectively. The 1-OH-DDMS compounds tested contain two chiral centers (C2, C4): (2R,4R) (2S,4R), (2R,4S), and (2S,4S).
(§2) The 1-OH metabolites of N-desmethylsibutramine (DMS) were also tested to determine their ability to inhibit functional uptake of serotonin (5-HT), norepinephrine (NE), or dopamine (DA), into synaptosomes prepared from rat whole brain, hypothalamus, or corpora striata, respectively. In addition, binding was determined at the nonselective muscarinic receptor and the β3-receptor from rat cerebral cortex and rat adipose tissue, respectively. The 1-OH-DMS compounds tested contained two chiral centers (C2, C4): (2R,4R), (2S,4S), (2R,4S), and (2S,4R).

[2] = biological target: T2, functional uptake of norepinephrine (NE) into synaptosomes prepared from rat hypothalamus (Rattus norvegicus, UniProt Q63380); test: Functional uptake of norepinephrine (NE) into synaptosomes; assay type: biochemical; details: 10 concentrations in duplicate
T2 construct: into synaptosomes prepared from rat whole brain, hypothalamus, or corpora striata, respectively; from tissue; host or cells: rat hypothalamus synaptosomes
T2 sequence (Q63380 1-617): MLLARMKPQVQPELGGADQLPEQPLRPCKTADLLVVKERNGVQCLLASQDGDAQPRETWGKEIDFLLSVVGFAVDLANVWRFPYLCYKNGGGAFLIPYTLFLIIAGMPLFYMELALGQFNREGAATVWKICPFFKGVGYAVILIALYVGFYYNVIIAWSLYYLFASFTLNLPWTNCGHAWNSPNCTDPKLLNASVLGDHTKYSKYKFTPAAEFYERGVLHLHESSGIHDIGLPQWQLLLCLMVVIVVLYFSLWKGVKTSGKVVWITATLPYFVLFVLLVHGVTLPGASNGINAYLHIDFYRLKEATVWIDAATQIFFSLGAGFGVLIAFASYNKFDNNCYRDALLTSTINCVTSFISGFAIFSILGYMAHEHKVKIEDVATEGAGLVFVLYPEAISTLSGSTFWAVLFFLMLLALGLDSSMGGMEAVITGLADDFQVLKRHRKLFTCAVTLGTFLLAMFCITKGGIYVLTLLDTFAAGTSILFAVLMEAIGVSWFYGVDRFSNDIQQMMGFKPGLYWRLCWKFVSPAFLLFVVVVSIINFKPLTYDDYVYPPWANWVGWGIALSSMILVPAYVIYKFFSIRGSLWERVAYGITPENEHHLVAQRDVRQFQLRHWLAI
Procedure: as §1, §2

[3] = biological target: T3, functional uptake of dopamine (DA) into synaptosomes prepared from rat corpora striata (Rattus norvegicus, UniProt P23977); test: Functional uptake of dopamine (DA) into synaptosomes; assay type: biochemical; details: 10 concentrations in duplicate
T3 construct: into synaptosomes prepared from rat whole brain, hypothalamus, or corpora striata, respectively; from tissue; host or cells: rat corpora striata synaptosomes
T3 sequence (P23977 whole entry): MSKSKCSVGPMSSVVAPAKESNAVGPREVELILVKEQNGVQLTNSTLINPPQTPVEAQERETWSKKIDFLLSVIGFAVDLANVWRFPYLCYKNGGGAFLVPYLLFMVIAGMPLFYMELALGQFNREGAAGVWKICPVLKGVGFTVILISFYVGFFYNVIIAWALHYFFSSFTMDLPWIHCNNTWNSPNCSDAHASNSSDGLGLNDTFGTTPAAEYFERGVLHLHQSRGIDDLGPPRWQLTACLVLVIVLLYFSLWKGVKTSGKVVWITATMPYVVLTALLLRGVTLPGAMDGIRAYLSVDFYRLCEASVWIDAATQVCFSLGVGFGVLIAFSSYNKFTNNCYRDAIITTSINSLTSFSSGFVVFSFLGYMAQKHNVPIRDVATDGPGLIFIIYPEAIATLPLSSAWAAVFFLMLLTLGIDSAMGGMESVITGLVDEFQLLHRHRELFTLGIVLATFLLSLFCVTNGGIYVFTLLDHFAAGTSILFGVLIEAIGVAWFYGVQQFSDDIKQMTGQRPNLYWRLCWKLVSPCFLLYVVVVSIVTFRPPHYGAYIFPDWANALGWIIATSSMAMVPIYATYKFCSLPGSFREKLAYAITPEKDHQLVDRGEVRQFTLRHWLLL
Procedure: as §1, §2

[4] = biological target: T4, β3-receptor from rat adipose tissue (Rattus norvegicus, UniProt P26255); test: Binding at the β3-receptor
T4 construct: from tissue; host or cells: rat adipose tissue
T4 sequence (P26255 whole entry): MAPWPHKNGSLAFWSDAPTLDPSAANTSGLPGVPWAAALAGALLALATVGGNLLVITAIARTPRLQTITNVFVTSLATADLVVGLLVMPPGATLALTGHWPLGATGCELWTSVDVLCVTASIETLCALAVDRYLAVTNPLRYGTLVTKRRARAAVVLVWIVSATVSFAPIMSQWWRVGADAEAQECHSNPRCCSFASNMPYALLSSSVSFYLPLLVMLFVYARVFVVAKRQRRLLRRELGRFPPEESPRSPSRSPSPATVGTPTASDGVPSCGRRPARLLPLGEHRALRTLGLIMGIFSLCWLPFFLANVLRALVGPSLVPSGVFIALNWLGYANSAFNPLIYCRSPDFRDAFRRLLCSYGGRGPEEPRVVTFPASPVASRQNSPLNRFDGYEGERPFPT
Procedure: Indeed, certain compounds have been tested. The 1-OH metabolites of N-didesmethylsibutramine (1-OH-DDMS) were tested to determine thir ability to functional uptake of serotonin (5-HT), norepinephrine (NE), or dopamine (DA), into synaptosomes prepared from rat whole brain, hypothalamus, or corpora striata, respectively. In addition, binding was determined at the nonselective muscarinic receptor and the β3-receptor from rat cerebral cortex and rat adipose tissue, respectively. The 1-OH-DDMS compounds tested contain two chiral centers (C2, C4): (2R,4R) (2S,4R), (2R,4S), and (2S,4S).
as §2

[5] = read-out: IC50 Values (nM) for 1-OH Metabolites of DDMS in Functional Uptake Assays: 5-HT
[6] = read-out: IC50 Values (nM) for 1-OH Metabolites of DDMS in Functional Uptake Assays: NE
[7] = read-out: IC50 Values (nM) for 1-OH Metabolites of DDMS in Functional Uptake Assays: DA
[8] = read-out: IC50 Values (nM) for 1-OH Metabolites of DMS in Functional Uptake Assays: 5-HT
[9] = read-out: IC50 Values (nM) for 1-OH Metabolites of DMS in Functional Uptake Assays: NE
[10] = read-out: IC50 Values (nM) for 1-OH Metabolites of DMS in Functional Uptake Assays: DA

| SMILES | IC50 [1, 5] [nM] | IC50 [2, 6] [nM] | IC50 [3, 7] [nM] | IC50 [1, 8] [nM] | IC50 [2, 9] [nM] | IC50 [3, 10] [nM] | inhibition at 10 µM [1] [%] | inhibition at 10 µM ([4]; read-out: inhibition at the β3-receptor (1-OH-DMS compounds)) [%] | inhibition at 10 µM ([4]; read-out: inhibition at the β3-receptor (1-OH-DDMS compounds)) [%] |
| --- | --- | --- | --- | --- | --- | --- | --- | --- | --- |
| C[C@@H](CO)C[C@@H](N)C1(c2ccc(Cl)cc2)CCC1 [(2R,4R)-1-OH-DDMS, (2R, 4R)-4-Amino-4-[1-(4-chlorophenyl)cyclobutyl]-2-methyl-butan-1-ol] | 34 | 4.7 | 27 |  |  |  |  |  |  |
| CN[C@H](C[C@@H](C)CO)C1(c2ccc(Cl)cc2)CCC1 [(2R,4R)-1-OH-DMS] |  |  |  | 12 | 2.2 | 19 |  |  |  |
| C[C@@H](CO)C[C@H](N)C1(c2ccc(Cl)cc2)CCC1 [(2R,4S)-1-OH-DDMS, (2R, 4S)-4-Amino-4-[1-(4-chlorophenyl)cyclobutyl]-2-methyl-butan-1-ol] | 2000 | 71 | 110 |  |  |  |  |  |  |
| CN[C@@H](C[C@@H](C)CO)C1(c2ccc(Cl)cc2)CCC1 [(2R,4S)-1-OH-DMS, (2R, 4S)-4-Methylamino-4-[1-(4-chlorophenyl)cyclobutyl]-2-methyl-butan-1-ol] |  |  |  |  | 74 | 2500 | < 50 |  |  |
| C[C@H](CO)C[C@@H](N)C1(c2ccc(Cl)cc2)CCC1 [(2S,4R)-1-OH-DDMS, (2S,4R)-4-Amino-4-[1-(4-chlorophenyl)cyclobutyl]-2-methyl-butan-1-ol] | 65 | 11 | 37 |  |  |  |  |  |  |
| CN[C@H](C[C@H](C)CO)C1(c2ccc(Cl)cc2)CCC1 [(2S,4R)-1-OH-DMS, (2S, 4R)-4-Methylamino-4-[1-(4-chlorophenyl)cyclobutyl]-2-methyl-butan-1-ol] |  |  |  | 160 | 9.3 | 37 |  | 24 |  |
| C[C@H](CO)C[C@H](N)C1(c2ccc(Cl)cc2)CCC1 [(2S,4S)-1-OH-DDMS, (2S, 4S)-4-Amino-4-[1-(4-chlorophenyl)cyclobutyl]-2-methyl-butan-1-ol] | 1200 | 150 | 33 |  |  |  |  |  | 30 |
| CN[C@@H](C[C@H](C)CO)C1(c2ccc(Cl)cc2)CCC1 [(2S,4S)-1-OH-DMS, (2S, 4S)-4-Methylamino-4-[1-(4-chlorophenyl)cyclobutyl]-2-methyl-butan-1-ol] |  |  |  |  | 250 | 430 | < 50 |  |  |
